Reference: patent US10619138B2, “Herbicide-resistant hydroxyphenylpyruvate dioxygenases” (BASF SE, priority 2013, dated 2020)
Where “and” joins values, the source holds several entries; their conditions need not be identical. Equal entries are not always repeated.

Columns and labels:
[1] = biological target: T1, Arabidopsis HPPD (SEQ ID NO: 42) (Arabidopsis thaliana, UniProt P93836); test: In vitro HPPD activity assay (HGA by HPLC), wildtype enzyme characterization; type: biochemical; conditions: for TI (normalized tolerance index): normalized on Arabidopsis wild-type HPPD, reference enzyme
T1 construct: Arabidopsis (42); His tag; made in house; host or cells: E. coli BL21 (DE3)
T1 sequence (P93836 1-445): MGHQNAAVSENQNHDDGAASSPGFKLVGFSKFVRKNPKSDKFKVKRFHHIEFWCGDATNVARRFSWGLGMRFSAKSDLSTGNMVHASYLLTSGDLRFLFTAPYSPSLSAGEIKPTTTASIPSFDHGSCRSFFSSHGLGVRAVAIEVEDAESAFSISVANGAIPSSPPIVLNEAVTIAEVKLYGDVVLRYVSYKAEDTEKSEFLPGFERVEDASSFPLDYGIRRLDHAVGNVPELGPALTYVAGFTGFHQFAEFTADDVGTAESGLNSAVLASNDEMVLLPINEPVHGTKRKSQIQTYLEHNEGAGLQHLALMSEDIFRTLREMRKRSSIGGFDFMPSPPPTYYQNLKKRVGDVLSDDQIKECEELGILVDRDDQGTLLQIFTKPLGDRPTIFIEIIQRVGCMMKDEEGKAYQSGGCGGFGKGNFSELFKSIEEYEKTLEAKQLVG
Experimental: (§1) The activity assay for HPPD is based on the analysis of homogentisic acid by reversed phase HPLC.
(§2) The assay mixture can contain 150 mM potassium phosphate buffer pH 7.0, 50 mM L-ascorbic acid, 100 μM Catalase (Sigma-Aldrich), 1 μM FeSO4 and 0.2 units of purified HPPD enzyme in a total volume of 505 μl. 1 unit is defined as the amount of enzyme that is required to produce 1 nmol of HGA per minute at 20° C.
(§3) The reaction is allowed to proceed for 45 min at room temperature. The reaction is stopped by the addition of 50 μl of 4.5 M phosphoric acid. The sample is filtered using a […] pore size PVDF filtration device.
(§4) 5 μl of the cleared sample is analyzed on an UPLC HSS T3 column (particle size 1.8 μm, dimensions 2.1×50 mm; Waters) by isocratic elution using 90% 20 mM NaH2PO4 pH 2.2, 10% methanol (v/v).
(§5) HGA is detected electrochemically at 750 mV (mode: DC; polarity: positive) and quantified by integrating peak areas (Empower software; Waters).
Inhibitors are dissolved in DMSO (dimethylsulfoxide) to a concentration of 0.5 mM. From this stock solution serial five-fold dilutions are prepared in DMSO, which are used in the assay. The respective inhibitor solution accounts for 1% of the assay volume. […] Activities are normalized by setting the uninhibited enzyme activity to 100%. IC50 values are calculated using non-linear regression.
(§6) Using methods which are described in the above examples or well known in the art, purified, recombinant wildtype HPPD enzymes are characterized with respect to their kinetic properties and sensitivity towards HPPD inhibiting herbicides. Apparent michaelis constants (Km) and maximal reaction velocities (Vmax) are calculated by non-linear regression with the software GraphPad Prism 5 (GraphPad Software, La Jolla, USA) using a substrate inhibition model. […] Weighted means (by standard error) of Km and IC50 values are calculated from at least three independent experiments.
(§7) Field performance of the HPPD enzyme, which is used as a herbicide tolerance trait may depend not only on its lack of sensitivity towards HPPD inhibiting herbicides but also on its activity. To assess the potential performance of a herbicide tolerance trait a tolerance index (TI) is calculated using the following formula: […]
(§8) Easy comparison and ranking of each trait is enabled by normalizing tolerance indexes on Arabidopsis wild-type HPPD.

[2] = tested on: Microscilla HPPD (SEQ ID NO: 20); test: In vitro HPPD activity assay, tolerance index; type: biochemical, Microscilla marina; conditions: normalized on Arabidopsis wild-type HPPD
Experimental: as §1, §2, §3, §4, §5
(§9) Inhibitors are dissolved in DMSO (dimethylsulfoxide) to a concentration of 0.5 mM. From this stock solution serial five-fold dilutions are prepared in DMSO, which are used in the assay. The respective inhibitor solution accounts for 1% of the assay volume. Thus, final inhibitor concentrations range from 5 μM to 320 pM, respectively. Activities are normalized by setting the uninhibited enzyme activity to 100%. IC50 values are calculated using non-linear regression.
as §6, with “experiments. The Cheng-Prusoff equation for competitive inhibition (Cheng, Y. C.; Prusoff, W. H. Biochem Pharmacol 1973, 22, 3099-3108) is used to calculate dissociation constants (Ki).” for “experiments.”
as §7, §8

[3] = tested on: Mucilaginibacter HPPD (SEQ ID NO: 28); test: In vitro HPPD activity assay, tolerance index; type: biochemical, Mucilaginibacter paludis; conditions: normalized on Arabidopsis wild-type HPPD
Experimental: as §1, §2, §3, §4, §5, §9
as §6, with “experiments. The Cheng-Prusoff equation for competitive inhibition (Cheng, Y. C.; Prusoff, W. H. Biochem Pharmacol 1973, 22, 3099-3108) is used to calculate dissociation constants (Ki).” for “experiments.”
as §7, §8

[4] = tested on: transgenic Arabidopsis plants expressing Acidobacterium HPPD; test: Greenhouse herbicide spray test, transgenic plants (T2); type: in vivo, Arabidopsis thaliana; conditions: for Injury evaluation, scale 0-100% / tolerance of transgenic plants (in words): two weeks after treatment; for tolerance of transgenic plants (in words): doses 1.56-50 g/ha
Excerpt: (§10) Additionally, T1 and T2 transgenic Arabidopsis plants can be tested for improved tolerance to HPPD-inhibiting herbicides in greenhouse studies. Herbicide injury scoring is done 2-3 weeks after treatment and is rated on a scale of 0 to 100%, 0% being no injury and 100% being complete death.
(§11) Transgenic Arabidopsis plants were sprayed with a range of doses from 1.56-50 g/ha with HPPD-inhibiting herbicides and injury evaluations were taken two weeks after treatment. […] As depicted in Table 6, control plants are severely injured by all doses of herbicide applied, with at least 70% of leaf material being damaged at the lowest application rate. For example, transgenic plants expressing Scenedesmus HPPD have an excellent tolerance to all herbidcides tested. […] After application of Inhibitor 2, only 18% of leaf material was damaged resulting in a 5-fold tolerance compared to the WT at the highest application rate.

[5] = tested on: transgenic Arabidopsis plants expressing Algoriphagus HPPD; test: as above; type: in vivo, Arabidopsis thaliana; conditions: two weeks after treatment
Excerpt: as §10, §11

[6] = tested on: Acidobacterium HPPD (SEQ ID NO: 30); test: In vitro HPPD activity assay, tolerance index; type: biochemical, Acidobacterium capsulatum; conditions: normalized on Arabidopsis wild-type HPPD
Experimental: as §1, §2, §3, §4, §5, §9
as §6, with “experiments. The Cheng-Prusoff equation for competitive inhibition (Cheng, Y. C.; Prusoff, W. H. Biochem Pharmacol 1973, 22, 3099-3108) is used to calculate dissociation constants (Ki).” for “experiments.”
as §7, §8

[7] = tested on: untransformed wild-type (WT) Arabidopsis plants; test: Greenhouse herbicide spray test, wild-type plants; type: in vivo, Arabidopsis thaliana; conditions: two weeks after treatment, mean of three plants
Excerpt: as §10, §11

[8] = tested on: Pontibacter HPPD (SEQ ID NO: 16); test: In vitro HPPD activity assay, tolerance index; type: biochemical, Pontibacter sp.; conditions: normalized on Arabidopsis wild-type HPPD
Experimental: as §1, §2, §3, §4, §5, §9
as §6, with “experiments. The Cheng-Prusoff equation for competitive inhibition (Cheng, Y. C.; Prusoff, W. H. Biochem Pharmacol 1973, 22, 3099-3108) is used to calculate dissociation constants (Ki).” for “experiments.”
as §7, §8

[9] = Acidobacterium HPPD Event 1, 3.125 g/ha
[10] = Acidobacterium HPPD Event 1, 6.25 g/ha
[11] = Acidobacterium HPPD Event 2, 3.125 g/ha
[12] = Acidobacterium HPPD Event 2, 6.25 g/ha
[13] = Algoriphagus HPPD Event 1, 3.125 g/ha
[14] = Algoriphagus HPPD Event 1, 6.25 g/ha
[15] = Algoriphagus HPPD Event 2, 3.125 g/ha
[16] = Algoriphagus HPPD Event 2, 6.25 g/ha
[17] = Acidobacterium HPPD Event 1, 12.5 g/ha
[18] = Acidobacterium HPPD Event 2, 12.5 g/ha
[19] = Algoriphagus HPPD Event 1, 12.5 g/ha
[20] = Algoriphagus HPPD Event 2, 12.5 g/ha

Compound | TI (normalized tolerance index) [1] | TI (normalized tolerance index) [2] | TI (normalized tolerance index) [3] | Injury evaluation, scale 0-100% [4, 9] [%] | Injury evaluation, scale 0-100% [4, 10] [%] | Injury evaluation, scale 0-100% [4, 11] [%] | Injury evaluation, scale 0-100% [4, 12] [%] | tolerance of transgenic plants (in words) [4] | Injury evaluation, scale 0-100% [5, 13] [%] | Injury evaluation, scale 0-100% [5, 14] [%] | Injury evaluation, scale 0-100% [5, 15] [%] | Injury evaluation, scale 0-100% [5, 16] [%] | TI (normalized tolerance index) [6] | Injury evaluation, scale 0-100% ([7]; 3.125 g/ha) [%] | TI (normalized tolerance index) [8] | Injury evaluation, scale 0-100% [4, 17] [%] | Injury evaluation, scale 0-100% [4, 18] [%] | Injury evaluation, scale 0-100% [5, 19] [%] | Injury evaluation, scale 0-100% [5, 20] [%] | Injury evaluation, scale 0-100% ([7]; 12.5 g/ha) [%] | further results
CS(=O)(=O)c1ccc(C(=O)C2C(=O)CCCC2=O)c([N+](=O)[O-])c1 [Inhibitor 2, 2-(4-methylsulfonyl-2-nitro-benzoyl)cyclohexane-1,3-dione] | 1 | 0.2 | 0.6 | 8 | 45 | 33 | 55 | significantly increased tolerance | 53 | 65 | 60 | 75 | 0.6 | 93 | 0.1 |  |  |  |  |  | Injury evaluation, scale 0-100% ([4]; Acidobacterium HPPD Event 1, 1.56 g/ha): 8%; Injury evaluation, scale 0-100% ([4]; Acidobacterium HPPD Event 2, 1.56 g/ha): 10%; leaf damage ([4]; at the lowest application rate, both events): 8-10%; Injury evaluation, scale 0-100% ([5]; Algoriphagus HPPD Event 1, 1.56 g/ha): 48%; Injury evaluation, scale 0-100% ([5]; Algoriphagus HPPD Event 2, 1.56 g/ha): 45%; Injury evaluation, scale 0-100% ([7]; 1.56 g/ha): 83%; Injury evaluation, scale 0-100% ([7]; 6.25 g/ha): 93%
CN(c1c(Cl)ccc(C2=C(O)c3ncccc3C(C)(C)S2(=O)=O)c1Cl)S(C)(=O)=O [Inhibitor 4, N-[2,6-dichloro-3-(8-hydroxy-5,5-dimethyl-6,6-dioxo-thiopyrano[4,3-b]pyridin-7-yl)phenyl]-N-methyl-methanesulfonamide] | 1 | 112.0 | 13.5 |  |  |  |  | not severly injured |  |  |  |  | 64 and 64.3 |  | 16.4 | 20 | 23 | 40 | 33 | 75 | Ki [1]: 29 nM; TI (tolerance index) ([1]; not normalized): 23.8E−3; Injury evaluation, scale 0-100% ([4]; Acidobacterium HPPD Event 1, 25 g/ha): 25%; Injury evaluation, scale 0-100% ([4]; Acidobacterium HPPD Event 1, 50 g/ha): 35%; Injury evaluation, scale 0-100% ([4]; Acidobacterium HPPD Event 2, 25 g/ha): 25%; Injury evaluation, scale 0-100% ([4]; Acidobacterium HPPD Event 2, 50 g/ha): 60%; leaf material harmed ([4]; after application of 12.5 g/ha, both events): 20-23%; Injury evaluation, scale 0-100% ([5]; Algoriphagus HPPD Event 1, 25 g/ha): 45%; Injury evaluation, scale 0-100% ([5]; Algoriphagus HPPD Event 1, 50 g/ha): 50%; Injury evaluation, scale 0-100% ([5]; Algoriphagus HPPD Event 2, 25 g/ha): 33%; Injury evaluation, scale 0-100% ([5]; Algoriphagus HPPD Event 2, 50 g/ha): 60%; Injury evaluation, scale 0-100% ([7]; 25 g/ha): 83%; Injury evaluation, scale 0-100% ([7]; 50 g/ha): 85%
CSc1c(Cl)cc(F)c(C(=O)Nc2nnnn2C)c1Cl [Inhibitor 11, 2,4-dichloro-6-fluoro-3-methylsulfanyl-N-(1-methyltetrazol-5-yl)benzamide] | 1 | 0.1 | 0.2 | 53 | 65 | 58 | 93 |  | 55 | 73 | 68 | 90 | 0.1 | 70 | 0 | 98 | 98 | 98 | 97 | 83 | 
